Experimental findings from patent publication US12679878B2, “CRF2 receptor agonists and their use in therapy” (SANOFI, priority 2020, dated 2026) are described below.

One assay has as its target T1, CRF1R receptor (Homo sapiens, UniProt P34998).
T1 construct: host or cells: CHO-K1 clone 2
T1 sequence (P34998 24-415): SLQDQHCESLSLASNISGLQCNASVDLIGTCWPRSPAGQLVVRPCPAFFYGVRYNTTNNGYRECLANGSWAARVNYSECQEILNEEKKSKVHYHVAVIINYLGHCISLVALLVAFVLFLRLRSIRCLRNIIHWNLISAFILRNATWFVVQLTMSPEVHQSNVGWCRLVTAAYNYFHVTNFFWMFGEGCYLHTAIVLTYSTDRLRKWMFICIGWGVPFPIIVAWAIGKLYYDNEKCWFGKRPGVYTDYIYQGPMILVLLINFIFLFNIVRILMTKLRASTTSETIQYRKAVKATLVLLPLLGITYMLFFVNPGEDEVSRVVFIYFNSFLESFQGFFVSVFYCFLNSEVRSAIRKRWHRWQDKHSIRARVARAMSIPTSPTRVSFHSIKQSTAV
The assay can be described thus: cAMP activity at anti-target CRF1R, CRF1R-overexpression CHO cell line (Example 9). It counts as cell-based. As to conditions: CRF1R-overexpression CHO cell line; for EC50: 0% HSA; for Emax: read-out: Emax (%). Here is the method: Cells were grown in a T175 culture flask placed at 37° C. to near confluence in medium (DMEM/10% FBS) and collected in 2 ml vials in cell culture medium containing 10% DMSO in a concentration of 10-50 million cells/ml. Each vial contained 1.8 ml cells. The vials were slowly frozen to −80° C. in isopropanol and then transferred in liquid nitrogen for storage. Prior to use, frozen cells were thawed quickly at 37° C. and washed (5 min at 900 rpm) with 20 ml cell buffer (1×HBSS; 20 mM HEPES; 0% or 0.1% HSA). Cells were resuspended in assay buffer (cell buffer plus 2 mM IBMX) and adjusted to a cell density of 1 million cells/ml. For measurement, 5 μl cells (final […]) and 5 μL of test compound were added to a 384-well plate, followed by incubation for 30 minutes at room temperature.
The CAMP content of cells was determined using a kit from Cisbio Corp. (cat. no. 62AM4PEC) based on HTRF (Homogenous Time Resolved Fluorescence). […] The percent activity value (E %) was calculated by setting 1000 nM of urocortin 2 (UCN2) as 100%.
A CRF1R-overexpression CHO cell line was used in this study.

Another assay concerns the target T2, human CRF2α receptor (Homo sapiens, UniProt Q13324).
T2 construct: expressed in transfected cells; host or cells: TeloHEAC
T2 sequence (Q13324 1-411): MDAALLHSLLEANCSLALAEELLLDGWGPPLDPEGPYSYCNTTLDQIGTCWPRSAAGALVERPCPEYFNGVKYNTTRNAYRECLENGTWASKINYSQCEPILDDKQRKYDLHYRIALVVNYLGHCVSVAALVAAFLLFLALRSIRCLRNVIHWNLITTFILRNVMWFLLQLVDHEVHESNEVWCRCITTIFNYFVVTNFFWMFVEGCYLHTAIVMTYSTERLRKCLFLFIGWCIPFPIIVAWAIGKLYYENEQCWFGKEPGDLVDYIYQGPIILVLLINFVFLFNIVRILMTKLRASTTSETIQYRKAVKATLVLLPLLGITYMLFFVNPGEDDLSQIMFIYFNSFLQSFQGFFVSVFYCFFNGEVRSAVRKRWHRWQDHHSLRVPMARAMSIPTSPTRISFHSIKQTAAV
The experiment in a line: cAMP agonism at human CRF2 α receptor in TeloHEAC cells (Example 7). Particulars: cAMP HTRF, TeloHEAC cells stably expressing human CRF2 α. It counts as cell-based. The method in brief:
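Thawed frozen stably transfected cells in HBSS/20 mM HEPES (0% or 0.1% HSA) plus 2 mM IBMX were exposed to compound at 2000 cells/well for 30 min at room temperature. Intracellular cAMP was read by HTRF (665/620 nm ratio) after 1 h lysis; EC50 was derived with 1000 nM urocortin 2 set as 100%.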
For orientation: TR-FRET usually uses a lanthanide donor and a delayed reading to cut background.

The target of assay [1] is T3, CRF1R receptor (anti-target) (UniProt P34998 24-415, limits assumed).
T3 sequence (looked up): T1 sequence (P34998 24-415)
The assay can be described thus: cell-based or functional assay.

Setting [2] is: 0% HSA, read-out: EC50 [nM], 0% HSA.
Where [3] appears, read: 0.1% HSA, read-out: EC50 [nM], 0.1% HSA.

Like-named read-outs stand apart in the source and are kept apart here. Starred links: 1 amine or outer side, 2 acyl side, 3 side chain; linkers in the order of their positions; H or OH if unused. Non-standard residues stand in square brackets, D forms with d. Residues, ends and D or L forms follow the SMILES beside them. Groups on a side chain read outwards from the residue. No end group written: not given here. *: point of attachment. C20 diacid = O=C(O)CCCCCCCCCCCCCCCCCCC(=O)*; C18 diacid = O=C(O)CCCCCCCCCCCCCCCCC(=O)*; γGlu = O=C(O)[C@H](CCC(=O)[*:2])N[*:1]; AEEA = NCCOCCOCC(=O)O; Aib = CC(C)(N)C(=O)O

The term EC50 denotes the midpoint of the concentration-response curve. The term Emax denotes the maximal effect, on the per cent scale that the assay sets. Regarding `CC[C@H](C)[C@H](N)C(=O)N[C@H](C(=O)N[C@@H](CC(C)C)C(=O)N[C@@H](CO)C(=O)N[C@@H](CC(C)C)C(=O)N[C@@H](CC(=O)O)C(=O)N[C@@H](C(=O)N1CCC[C@H]1C(=O)N[C@H](C(=O)N[C@@H](CCCCN)C(=O)N[C@@H](CC(C)C)C(=O)N[C@@H](CCCCNC(=O)COCCOCCNC(=O)COCCOCCNC(=O)CC[C@H](NC(=O)CC[C@H](NC(=O)CCCCCCCCCCCCCCCCC(=O)O)C(=O)O)C(=O)O)C(=O)N[C@@H](CCC(N)=O)C(=O)N[C@H](C(=O)N[C@@H](CC(C)C)C(=O)N[C@@H](CC(C)C)C(=O)N[C@@H](CCCCN)C(=O)N[C@@H](CCC(N)=O)C(=O)N[C@@H](CCC(=O)O)C(=O)N[C@@H](CCCNC(=N)N)C(=O)N[C@@H](CCC(N)=O)C(=O)N[C@@H](CCCCN)C(=O)NC(C)(C)C(=O)N[C@@H](CCC(N)=O)C(=O)N[C@@H](CCCNC(=N)N)C(=O)N[C@@H](CCC(=O)O)C(=O)N[C@@H](CCC(N)=O)C(=O)N[C@@H](C)C(=O)N[C@@H](CCC(=O)O)C(=O)N[C@@H](CCCCN)C(=O)N[C@@H](CC(N)=O)C(=O)N[C@@H](CCCCN)C(=O)N[C@@H](CCC(N)=O)C(=O)N[C@H](C(=O)N[C@@H](CC(C)C)C(=O)N[C@@H](C)C(=O)N[C@@H](CCC(N)=O)C(=O)N[C@H](C(N)=O)C(C)C)[C@@H](C)CC)[C@@H](C)CC)[C@@H](C)CC)C(C)C)C(C)C` [compound 171] (H-IVLSLD[dV]PIKLK([AEEA-AEEA-γGlu-γGlu-C18 diacid])QILLKQERQK[Aib]QREQAEKNKQILAQV-NH2), the EC50 on CRF1R receptor is over 1000 nM; at human CRF2α receptor (setting [2]), 0.17 nM; at human CRF2α receptor (setting [3]), 2.62 nM. In addition, the maximal effect (Emax) at CRF1R receptor came out at 7.54%.
Regarding `CC[C@H](C)[C@H](N)C(=O)N[C@H](C(=O)N[C@@H](CC(C)C)C(=O)N[C@@H](CO)C(=O)N[C@@H](CC(C)C)C(=O)N[C@@H](CC(=O)O)C(=O)N[C@@H](C(=O)N1CCC[C@H]1C(=O)N[C@H](C(=O)N[C@@H](CCCCN)C(=O)N[C@@H](CC(C)C)C(=O)N[C@@H](CCCCNC(=O)COCCOCCNC(=O)COCCOCCNC(=O)CC[C@H](NC(=O)CC[C@H](NC(=O)CCCCCCCCCCCCCCCCCCC(=O)O)C(=O)O)C(=O)O)C(=O)N[C@@H](CCC(N)=O)C(=O)N[C@H](C(=O)N[C@@H](CC(C)C)C(=O)N[C@@H](CC(C)C)C(=O)N[C@@H](CCCCN)C(=O)N[C@@H](CCC(N)=O)C(=O)N[C@@H](CCC(=O)O)C(=O)N[C@@H](CCCNC(=N)N)C(=O)N[C@@H](CCC(N)=O)C(=O)N[C@@H](CCCCN)C(=O)NC(C)(C)C(=O)N[C@@H](CCC(N)=O)C(=O)N[C@@H](CCCNC(=N)N)C(=O)N[C@@H](CCC(=O)O)C(=O)N[C@@H](CCC(N)=O)C(=O)N[C@@H](C)C(=O)N[C@@H](CCC(=O)O)C(=O)N[C@@H](CCCCN)C(=O)N[C@@H](CC(N)=O)C(=O)N[C@@H](CCCCN)C(=O)N[C@@H](CCC(N)=O)C(=O)N[C@H](C(=O)N[C@@H](CC(C)C)C(=O)N[C@@H](C)C(=O)N[C@@H](CCC(N)=O)C(=O)N[C@H](C(N)=O)C(C)C)[C@@H](C)CC)[C@@H](C)CC)[C@@H](C)CC)C(C)C)C(C)C` [compound 172] (H-IVLSLD[dV]PIKLK([AEEA-AEEA-γGlu-γGlu-C20 diacid])QILLKQERQK[Aib]QREQAEKNKQILAQV-NH2; N-terminus assumed), the EC50 was over 1000 nM on CRF1R receptor, 0.04 nM at human CRF2α receptor (setting [2]) and 2.76 nM on human CRF2α receptor (setting [3]). At CRF1R receptor, the maximal effect (Emax) was found to be 25.6%.

B1: peptide of SEQ ID NO: 16 (peptide)
peptide: IVLSLDVPIGLK([AEEA-AEEA-γGlu-C18 diacid])QKLLKQQRQRKERQQAEKNARILARV-NH2
modifications: N-terminus assumed
SMILES: CC[C@H](C)[C@H](N)C(=O)N[C@H](C(=O)N[C@@H](CC(C)C)C(=O)N[C@@H](CO)C(=O)N[C@@H](CC(C)C)C(=O)N[C@@H](CC(=O)O)C(=O)N[C@H](C(=O)N1CCC[C@H]1C(=O)N[C@H](C(=O)NCC(=O)N[C@@H](CC(C)C)C(=O)N[C@@H](CCCCNC(=O)COCCOCCNC(=O)COCCOCCNC(=O)CC[C@H](NC(=O)CCCCCCCCCCCCCCCCC(=O)O)C(=O)O)C(=O)N[C@@H](CCC(N)=O)C(=O)N[C@@H](CCCCN)C(=O)N[C@@H](CC(C)C)C(=O)N[C@@H](CC(C)C)C(=O)N[C@@H](CCCCN)C(=O)N[C@@H](CCC(N)=O)C(=O)N[C@@H](CCC(N)=O)C(=O)N[C@@H](CCCNC(=N)N)C(=O)N[C@@H](CCC(N)=O)C(=O)N[C@@H](CCCNC(=N)N)C(=O)N[C@@H](CCCCN)C(=O)N[C@@H](CCC(=O)O)C(=O)N[C@@H](CCCNC(=N)N)C(=O)N[C@@H](CCC(N)=O)C(=O)N[C@@H](CCC(N)=O)C(=O)N[C@@H](C)C(=O)N[C@@H](CCC(=O)O)C(=O)N[C@@H](CCCCN)C(=O)N[C@@H](CC(N)=O)C(=O)N[C@@H](C)C(=O)N[C@@H](CCCNC(=N)N)C(=O)N[C@H](C(=O)N[C@@H](CC(C)C)C(=O)N[C@@H](C)C(=O)N[C@@H](CCCNC(=N)N)C(=O)N[C@H](C(N)=O)C(C)C)[C@@H](C)CC)[C@@H](C)CC)C(C)C)C(C)C
With B1, in assay [1], the “EC50 [nM] 0% HSA (cAMP, HTRF)” value was over 100 nM and the “Emax (%) (100% = Sauvagine at 100 nM)” value was determined as 0.4%.

B2: peptide of SEQ ID NO: 22 (peptide)
peptide: IVLSLDVPIKLK([AEEA-AEEA-γGlu-C18 diacid])QILLKQERQK[Aib]QRQKAEKNKQILAQV-NH2
modifications: N-terminus assumed
SMILES: CC[C@H](C)[C@H](N)C(=O)N[C@H](C(=O)N[C@@H](CC(C)C)C(=O)N[C@@H](CO)C(=O)N[C@@H](CC(C)C)C(=O)N[C@@H](CC(=O)O)C(=O)N[C@H](C(=O)N1CCC[C@H]1C(=O)N[C@H](C(=O)N[C@@H](CCCCN)C(=O)N[C@@H](CC(C)C)C(=O)N[C@@H](CCCCNC(=O)COCCOCCNC(=O)COCCOCCNC(=O)CC[C@H](NC(=O)CCCCCCCCCCCCCCCCC(=O)O)C(=O)O)C(=O)N[C@@H](CCC(N)=O)C(=O)N[C@H](C(=O)N[C@@H](CC(C)C)C(=O)N[C@@H](CC(C)C)C(=O)N[C@@H](CCCCN)C(=O)N[C@@H](CCC(N)=O)C(=O)N[C@@H](CCC(=O)O)C(=O)N[C@@H](CCCNC(=N)N)C(=O)N[C@@H](CCC(N)=O)C(=O)N[C@@H](CCCCN)C(=O)NC(C)(C)C(=O)N[C@@H](CCC(N)=O)C(=O)N[C@@H](CCCNC(=N)N)C(=O)N[C@@H](CCC(N)=O)C(=O)N[C@@H](CCCCN)C(=O)N[C@@H](C)C(=O)N[C@@H](CCC(=O)O)C(=O)N[C@@H](CCCCN)C(=O)N[C@@H](CC(N)=O)C(=O)N[C@@H](CCCCN)C(=O)N[C@@H](CCC(N)=O)C(=O)N[C@H](C(=O)N[C@@H](CC(C)C)C(=O)N[C@@H](C)C(=O)N[C@@H](CCC(N)=O)C(=O)N[C@H](C(N)=O)C(C)C)[C@@H](C)CC)[C@@H](C)CC)[C@@H](C)CC)C(C)C)C(C)C
Turning to B2, in assay [1], the “EC50 [nM] 0% HSA (cAMP, HTRF)” value is over 100 nM and the “Emax (%) (100% = Sauvagine at 100 nM)” value worked out at 1.2%.
